Results published in the supplement of paper PMC10307832.

What was measured:
Experiment in all cases: relative viability (nuclei count vs DMSO), 5 days (fraction); higher = more cells survive
A-427 = test system: A-427
In short: (§1)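 Lung cancer cell lines were seeded in 1536-well plates and dosed by pin tool the next day, with either a single drug or a fixed anchor-drug dose combined with five library-drug doses (not always all listed) spaced in √10 steps. Five days later, one step fixed the cells and stained their nuclei (final 0.05% Triton X-100, 1% formaldehyde, 1 ug/ml Hoechst), and nuclei were counted on 4× images. Relative viability is the nuclei count in treated wells divided by the count in vehicle wells, and each value is the median of duplicate plates.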

SW 1573 = test system: SW 1573
In short: as §1

RERF-LC-KJ = test system: RERF-LC-KJ
In short: as §1

PC-3 [JPC-3] = test system: PC-3 [JPC-3]
In short: as §1

NCI-H460 = test system: NCI-H460
In short: as §1

NCI-H1734 = test system: NCI-H1734
In short: as §1

HOP-62 = test system: HOP-62
In short: as §1

SK-LU-1 = test system: SK-LU-1
In short: as §1

HCC-15 = test system: HCC-15
In short: as §1

NCI-H1755 = test system: NCI-H1755
In short: as §1

NCI-H647 = test system: NCI-H647
In short: as §1

LOU-NH91 = test system: LOU-NH91
In short: as §1

NCI-H1975 = test system: NCI-H1975
In short: as §1

NCI-H1915 = test system: NCI-H1915
In short: as §1

LC-2-ad = test system: LC-2-ad
In short: as §1

NCI-H2126 = test system: NCI-H2126
In short: as §1

HCC-78 = test system: HCC-78
In short: as §1

NCI-H2228 = test system: NCI-H2228
In short: as §1

NCI-H358 = test system: NCI-H358
In short: as §1

NCI-H2347 = test system: NCI-H2347
In short: as §1

LXF-289 = test system: LXF-289
In short: as §1

NCI-H1792 = test system: NCI-H1792
In short: as §1

C=C1C(=O)O[C@@H](CCCCCCCC)[C@@H]1C(=O)O [C-75] + C[C@@H](Oc1cc(-c2cnn(C3CCNCC3)c2)cnc1N)c1c(Cl)ccc(F)c1Cl [Crizotinib] (partner 1 µM)
relative viability (A-427; first compound 0.08 µM): 0.929
relative viability (A-427; first compound 0.253 µM): 1.11
relative viability (A-427; first compound 0.8 µM): 0.883
relative viability (A-427; first compound 2.53 µM): 0.69
relative viability (A-427; first compound 8 µM): 0.898
relative viability (SW 1573; first compound 0.08 µM): 0.812
relative viability (SW 1573; first compound 0.253 µM): 0.842
relative viability (SW 1573; first compound 0.8 µM): 0.768
relative viability (SW 1573; first compound 2.53 µM): 0.809
relative viability (SW 1573; first compound 8 µM): 0.754
relative viability (RERF-LC-KJ; first compound 0.08 µM): 0.881
relative viability (RERF-LC-KJ; first compound 0.253 µM): 0.846
relative viability (RERF-LC-KJ; first compound 0.8 µM): 0.815
relative viability (RERF-LC-KJ; first compound 2.53 µM): 0.704
relative viability (RERF-LC-KJ; first compound 8 µM): 0.86
relative viability (PC-3 [JPC-3]; first compound 0.08 µM): 1.01
relative viability (PC-3 [JPC-3]; first compound 0.253 µM): 0.99
relative viability (PC-3 [JPC-3]; first compound 0.8 µM): 0.98
relative viability (PC-3 [JPC-3]; first compound 2.53 µM): 1.05
relative viability (PC-3 [JPC-3]; first compound 8 µM): 1.14
relative viability (NCI-H460; first compound 0.08 µM): 0.88
relative viability (NCI-H460; first compound 0.253 µM): 1.07
relative viability (NCI-H460; first compound 0.8 µM): 0.696
relative viability (NCI-H460; first compound 8 µM): 0.696
relative viability (NCI-H1734; first compound 0.08 µM): 0.692
relative viability (NCI-H1734; first compound 0.253 µM): 0.624
relative viability (NCI-H1734; first compound 0.8 µM): 0.618
relative viability (NCI-H1734; first compound 2.53 µM): 0.557
relative viability (NCI-H1734; first compound 8 µM): 0.69
relative viability (HOP-62; first compound 0.08 µM): 0.99
relative viability (HOP-62; first compound 0.253 µM): 0.849
relative viability (HOP-62; first compound 0.8 µM): 0.81
relative viability (HOP-62; first compound 2.53 µM): 0.824
relative viability (HOP-62; first compound 8 µM): 1
relative viability (SK-LU-1; first compound 0.08 µM): 0.801
relative viability (SK-LU-1; first compound 0.253 µM): 0.987
relative viability (SK-LU-1; first compound 0.8 µM): 0.883
relative viability (SK-LU-1; first compound 2.53 µM): 0.907
relative viability (SK-LU-1; first compound 8 µM): 0.655
relative viability (HCC-15; first compound 0.08 µM): 0.82
relative viability (HCC-15; first compound 0.253 µM): 0.885
relative viability (HCC-15; first compound 0.8 µM): 0.764
relative viability (HCC-15; first compound 2.53 µM): 0.699
relative viability (HCC-15; first compound 8 µM): 0.835
relative viability (NCI-H1755; first compound 0.08 µM): 0.87
relative viability (NCI-H1755; first compound 0.253 µM): 0.853
relative viability (NCI-H1755; first compound 0.8 µM): 0.836
relative viability (NCI-H1755; first compound 2.53 µM): 0.541
relative viability (NCI-H1755; first compound 8 µM): 0.824
relative viability (NCI-H647; first compound 0.08 µM): 1.06
relative viability (NCI-H647; first compound 0.253 µM): 1.05
relative viability (NCI-H647; first compound 2.53 µM): 0.842
relative viability (NCI-H647; first compound 8 µM): 0.603
relative viability (LOU-NH91; first compound 0.08 µM): 0.743
relative viability (LOU-NH91; first compound 0.253 µM): 0.696
relative viability (LOU-NH91; first compound 0.8 µM): 0.726
relative viability (LOU-NH91; first compound 2.53 µM): 0.682
relative viability (LOU-NH91; first compound 8 µM): 0.742
relative viability (NCI-H1975; first compound 0.08 µM): 0.987
relative viability (NCI-H1975; first compound 0.253 µM): 0.929
relative viability (NCI-H1975; first compound 0.8 µM): 0.908
relative viability (NCI-H1975; first compound 2.53 µM): 0.773
relative viability (NCI-H1975; first compound 8 µM): 0.935
relative viability (NCI-H1915; first compound 0.08 µM): 0.924
relative viability (NCI-H1915; first compound 0.253 µM): 0.914
relative viability (NCI-H1915; first compound 0.8 µM): 0.879
relative viability (NCI-H1915; first compound 2.53 µM): 0.819
relative viability (NCI-H1915; first compound 8 µM): 0.804
relative viability (LC-2-ad; first compound 0.08 µM): 0.467
relative viability (LC-2-ad; first compound 0.253 µM): 0.467
relative viability (LC-2-ad; first compound 0.8 µM): 0.369
relative viability (LC-2-ad; first compound 2.53 µM): 0.446
relative viability (LC-2-ad; first compound 8 µM): 0.42
relative viability (NCI-H2126; first compound 0.08 µM): 1.04
relative viability (NCI-H2126; first compound 0.253 µM): 1.07
relative viability (NCI-H2126; first compound 0.8 µM): 1.01
relative viability (NCI-H2126; first compound 2.53 µM): 0.735
relative viability (NCI-H2126; first compound 8 µM): 0.972
relative viability (HCC-78; first compound 0.08 µM): 0.358
relative viability (HCC-78; first compound 0.253 µM): 0.338
relative viability (HCC-78; first compound 0.8 µM): 0.36
relative viability (HCC-78; first compound 2.53 µM): 0.308
relative viability (HCC-78; first compound 8 µM): 0.4
relative viability (NCI-H2228; first compound 0.08 µM): 0.548
relative viability (NCI-H2228; first compound 0.253 µM): 0.472
relative viability (NCI-H2228; first compound 0.8 µM): 0.412
relative viability (NCI-H2228; first compound 2.53 µM): 0.438
relative viability (NCI-H2228; first compound 8 µM): 0.596
relative viability (NCI-H358; first compound 0.08 µM): 0.63
relative viability (NCI-H358; first compound 0.253 µM): 0.696
relative viability (NCI-H358; first compound 0.8 µM): 0.59
relative viability (NCI-H358; first compound 2.53 µM): 0.565
relative viability (NCI-H358; first compound 8 µM): 0.618
relative viability (NCI-H2347; first compound 0.08 µM): 0.735
relative viability (NCI-H2347; first compound 0.253 µM): 0.752
relative viability (NCI-H2347; first compound 0.8 µM): 0.63
relative viability (NCI-H2347; first compound 2.53 µM): 0.711
relative viability (NCI-H2347; first compound 8 µM): 0.648
relative viability (LXF-289; first compound 0.08 µM): 0.795
relative viability (LXF-289; first compound 0.253 µM): 0.793
relative viability (LXF-289; first compound 0.8 µM): 0.812
relative viability (LXF-289; first compound 2.53 µM): 0.739
relative viability (LXF-289; first compound 8 µM): 0.806
relative viability (NCI-H1792; first compound 0.08 µM): 1.01
relative viability (NCI-H1792; first compound 0.253 µM): 0.918
relative viability (NCI-H1792; first compound 0.8 µM): 0.919
relative viability (NCI-H1792; first compound 2.53 µM): 0.857
relative viability (NCI-H1792; first compound 8 µM): 0.879
